# Measurements taken from US20090227563A1, “HERBICIDAL COMPOSITIONS HAVING IMPROVED EFFECT” (Bayer CropScience AG, priority 2005, published 2009).
# Several values for one entry are separate records, joined by “and”; a condition that tells them apart may be missing. Equal entries are not always repeated.
# What was measured:
# Format in all cases: in vivo
# [1] = tested on: Alopecurus myosuroides (ALOMY); experiment: Glasshouse trial on activity boost, post-emergence spraying, visual rating
# Protocol: (§1) Seeds of monocot and dicot weeds and crop plants are sown in sandy loam soil in wood fibre pots or in plastic pots, and are covered with soil and cultivated under good growth conditions in the glasshouse and also, during the vegetation period, outdoors outside the glasshouse. 2-3 weeks after sowing, the trial plants are treated at the one- to three-leaf stage. The test compounds, formulated as wettable powders (WP) or liquids (EC), are applied by spraying to the plants and the soil surface in various doses, with a water application rate of 300 l/ha (converted) and with the addition of penetrants (0.2% to 0.4%) and where appropriate an ammonium salt. After the trial plants had stood in the glasshouse for about 3 to 4 weeks under optimum growth conditions, the activity of the products was rated visually in comparison to untreated controls (activity in %, i.e. 0%=no activity or as control, 100%=all plants died).
# (§2) For rapeseed oil methyl ester (RME) the following tables specify concentration in % a.i. by volume for ammonium sulphate (AMS) in g/l in the spray liquor.
# (§3) ALOMY=Alopecurus myosuroides AVEFA=Avena fatua LOLMU=Lolium multiflorum LOLRI=Lolium rigidum
# (§4) ALOMY=Alopecurus myosuroides AVEFA=Avena fatua LOLMU=Lolium multiflorum SETVI=Setaria viridis
# (§5) ALOMY=Alopecurus myosuroides AVEFA=Avena fatua LOLMU=Lolium multiflorum SETVI=Setaria viridis BROER=Bromus erectus
# [2] = tested on: Avena fatua (AVEFA); experiment: as above
# Protocol: as §1, §2, §3, §4, §5
# [3] = tested on: Lolium multiflorum (LOLMU); experiment: as above
# Protocol: as §1, §2, §3, §4
# [4] = tested on: Setaria viridis (SETVI); experiment: as above
# Protocol: as §1, §2, §4
# [5] = tested on: APESV; experiment: as above; details: 5 g/ha
# Protocol: as §1
# [6] = tested on: LOLME; experiment: as above; details: 5 g/ha
# Protocol: as §1
# [7] = tested on: Bromus erectus (BROER); experiment: as above; details: 5 g/ha
# Protocol: as §1, §5
# [8] = tested on: Agropyron repens (AGRRE); experiment: Plot trials (about 10 m2, 9 trials), post-emergence treatment; details: 5 g/ha, sum of all trials
# Protocol: (§6) In plots measuring approximately 10 m^2, in 9 trials, post-emergence treatments were carried out in 2-3 repetitions with compound (I-1-c-1). The weed population was the natural population and/or a sown population specifically geared to the objective. The active ingredient (I-1-c-1) was delivered as an EC formulation at the stated application rates with a penetrant of the formula (III-c-1) at a concentration of 0.3 g/l in 300 l of water, as a tank mix. In the elements of the trial with ammonium sulphate (AMS) the salt was added at 1 g/l to the spray liquor. Evaluation was made on the day of maximum activity. The activities reported in Table 5 are those obtained over the sum of all the trials.
# (§7) AGRRE=Agropyron repens ALOMY=Alopecurus myosuroides AVEFA=Avena fatua
# [9] = tested on: Alopecurus myosuroides (ALOMY); experiment: as above; details: 5 g/ha, sum of all trials
# Protocol: as §6, §7
# [10] = tested on: Avena fatua (AVEFA); experiment: as above; details: 5 g/ha, sum of all trials
# Protocol: as §6, §7
# [11] = tested on: Lolium rigidum (LOLRI); experiment: Glasshouse trial on activity boost, post-emergence spraying, visual rating
# Protocol: as §1, §2, §3
# [12] = 25 g/ha, RME (0.25%) + AMS (0.33 g/l)
# [13] = 25 g/ha, RME (0.25%) + AMS (1 g/l)
# [14] = 25 g/ha, RME (0.25%) + AMS (3.3 g/l)
# [15] = 50 g/ha, RME (0.25%) + AMS (3.3 g/l)
# [16] = 50 g/ha, RME (0.25%) + AMS (0.33 g/l)
# [17] = 50 g/ha, RME (0.25%) + AMS (1 g/l)
# [18] = 12.5 g/ha, RME (0.25%) + AMS (3.3 g/l)
# [19] = 5 g/ha, Genapol LRO (0.33%) + AMS (3.3 g/l)
# [20] = Genapol LRO (0.33%) + AMS (3.3 g/l)
# [21] = (III-c-1) (0.3 g/l) + AMS (1 g/l)
# [22] = 100 g/ha, RME (0.25%) + AMS (3.3 g/l)
# [23] = 50 g/ha, RME (0.25%) + AMS (6.6 g/l)
smiles,measurement,setting,value
CCc1cc(C)cc(CC)c1-c1c(OC(=O)C(C)(C)C)n2n(c1=O)CCOCC2 [I-8-b-1],Activity,"[1]; 25 g/ha, RME (0.25%)",20%
same,Activity,[1]; [12],70%
same,Activity,[1]; [13],50%
same,Activity,[1]; [14],80%
same,Activity,"[1]; 50 g/ha, RME (0.25%)",90%
same,Activity,[1]; [15],95%
same,Activity,"[2]; 25 g/ha, RME (0.25%)",30%
same,Activity,[2]; [14],80%
same,Activity,"[2]; 50 g/ha, RME (0.25%)",70%
same,Activity,[2]; [16],90%
same,Activity,[2]; [17],95%
same,Activity,[2]; [15],97%
same,Activity,"[3]; 25 g/ha, RME (0.25%)",60%
same,Activity,[3]; [14],93%
same,Activity,"[3]; 50 g/ha, RME (0.25%)",97%
same,Activity,[3]; [15],100%
CCc1cc(Br)cc(C)c1C1=C(O)C2(CCC(OC)CC2)NC1=O (stereo not shown) [I-1-a-1],Activity,"[4]; 25 g/ha, RME (0.25%)",30%
same,Activity,[4]; [14],50%
same,Activity,"[4]; 50 g/ha, RME (0.25%)",40%
same,Activity,[4]; [15],50%
CCc1cc(C)cc(Br)c1C1=C(O)C(C)(C)NC1=O [I-1-a-6],Activity,"[4]; 12.5 g/ha, RME (0.25%)",50%
same,Activity,"[4]; 12.5 g/ha, RME (0.25%) + AMS (0.33 g/l)",65%
same,Activity,"[4]; 12.5 g/ha, RME (0.25%) + AMS (1 g/l)",75%
same,Activity,[4]; [18],90%
same,Activity,"[3]; 50 g/ha, RME (0.25%)",5%
same,Activity,[3]; [16],20%
same,Activity,[3]; [17],50%
same,Activity,[3]; [15],65%
CCc1cc(Cl)ccc1C1=C(OC(=O)C(C)C)C2(CCC(C)CC2)NC1=O (stereo not shown) [I-1-b-1],Activity,"[1]; 25 g/ha, RME (0.25%)",5%
same,Activity,[1]; [14],25%
same,Activity,"[1]; 50 g/ha, RME (0.25%)",20%
same,Activity,[1]; [15],75%
same,Activity,"[2]; 25 g/ha, RME (0.25%)",15%
same,Activity,[2]; [14],60%
same,Activity,"[2]; 50 g/ha, RME (0.25%)",50%
same,Activity,[2]; [15],60%
same,Activity,"[3]; 25 g/ha, RME (0.25%)",10%
same,Activity,[3]; [14],25%
same,Activity,"[3]; 50 g/ha, RME (0.25%)",10%
same,Activity,[3]; [15],75%
CCCCO[C@@H]1CCC[C@]2(C1)NC(=O)C(c1c(C)cc(C)cc1C)=C2O [I-1-a-5],Activity,"[1]; 25 g/ha, RME (0.25%)",25%
same,Activity,[1]; [12],50%
same,Activity,[1]; [13],50%
same,Activity,[1]; [14],60%
same,Activity,"[3]; 50 g/ha, RME (0.25%)",5%
same,Activity,[3]; [16],60%
same,Activity,[3]; [17],93%
same,Activity,[3]; [15],95%
CCc1cc(Br)cc(Cl)c1C1=C(O)C(C)(C2CC2)NC1=O (stereo not shown) [I-1-a-2],Activity,"[4]; 12.5 g/ha, RME (0.25%)",5%
same,Activity,[4]; [18],60%
same,Activity,"[4]; 25 g/ha, RME (0.25%)",20%
same,Activity,[4]; [14],90%
same,Activity,"[4]; 50 g/ha, RME (0.25%)",50%
same,Activity,[4]; [15],93%
CCc1cccc(CC)c1C1=C(O)[C@]2(CC[C@H](OC)CC2)NC1=O [I-1-a-4],Activity,"[1]; 25 g/ha, RME (0.25%)",3%
same,Activity,[1]; [14],50%
same,Activity,"[1]; 50 g/ha, RME (0.25%)",5%
same,Activity,[1]; [15],70%
same,Activity,"[2]; 25 g/ha, RME (0.25%)",3%
same,Activity,[2]; [14],10%
same,Activity,"[2]; 50 g/ha, RME (0.25%)",5%
same,Activity,[2]; [15],30%
same,Activity,"[3]; 25 g/ha, RME (0.25%)",2%
same,Activity,[3]; [14],75%
same,Activity,"[3]; 50 g/ha, RME (0.25%)",5%
same,Activity,[3]; [15],90%
CCc1cc(C)cc(CC)c1C1C(=O)[C@H]2CCCC[C@@H]2C1=O [I-6-a-2],Activity,"[1]; 12.5 g/ha, RME (0.25%)",10%
same,Activity,[1]; [18],75%
same,Activity,"[1]; 25 g/ha, RME (0.25%)",30%
same,Activity,[1]; [14],93%
same,Activity,"[2]; 12.5 g/ha, RME (0.25%)",10%
same,Activity,[2]; [18],93%
same,Activity,"[2]; 25 g/ha, RME (0.25%)",35%
same,Activity,[2]; [14],99%
same,Activity,"[3]; 12.5 g/ha, RME (0.25%)",5%
same,Activity,[3]; [18],97%
same,Activity,"[3]; 25 g/ha, RME (0.25%)",20%
same,Activity,[3]; [14],100%
CCOC(=O)OC1=C(c2c(CC)cc(Cl)cc2OC)C(=O)NC12CCC(OC)CC2 (stereo not shown) [I-1-c-1],Activity,"[1]; 5 g/ha, Genapol LRO (0.33%)",73%
same,Activity,[1]; [19],99%
same,Activity,"[2]; 5 g/ha, Genapol LRO (0.33%)",75%
same,Activity,[2]; [19],100%
same,Activity,[5]; Genapol LRO (0.33%),93%
same,Activity,[5]; [20],97%
same,Activity,[6]; Genapol LRO (0.33%),86%
same,Activity,[6]; [20],97%
same,Activity,[7]; Genapol LRO (0.33%),73%
same,Activity,[7]; [20],97%
same,Activity,[8]; [21],90%
same,Activity,[8]; (III-c-1) (0.3 g/l),80%
same,Activity,[9]; [21],72%
same,Activity,[9]; (III-c-1) (0.3 g/l),67%
same,Activity,[10]; [21],90%
same,Activity,[10]; (III-c-1) (0.3 g/l),80%
CCc1cc(C)cc(OC)c1C1=C(O)C2CCCN2C1=O (stereo not shown) [I-1-a-3],Activity,"[4]; 25 g/ha, RME (0.25%)",15%
same,Activity,[4]; [14],70%
same,Activity,"[4]; 50 g/ha, RME (0.25%)",93%
same,Activity,[4]; [15],95%
same,Activity,"[4]; 100 g/ha, RME (0.25%)",93%
same,Activity,[4]; [22],99%
CCc1cc(C)cc(C)c1C1C(=O)CC2(CCCCC2)C1=O (stereo not shown) [I-6-a-1],Activity,"[4]; 12.5 g/ha, RME (0.25%)",0%
same,Activity,[4]; [18],25%
same,Activity,"[4]; 25 g/ha, RME (0.25%)",15%
same,Activity,[4]; [14],90%
same,Activity,"[4]; 50 g/ha, RME (0.25%)",25%
same,Activity,[4]; [15],90%
CCc1cc(-c2ccc(Cl)cc2)cc(C)c1C1=C(O)C2(CCC(OC)CC2)OC1=O (stereo not shown) [I-2-a-1],Activity,"[1]; 50 g/ha, RME (0.25%)",30%
same,Activity,[1]; [23],70%
same,Activity,"[1]; 100 g/ha, RME (0.25%)",30%
same,Activity,"[1]; 100 g/ha, RME (0.25%) + AMS (6.6 g/l)",70%
same,Activity,"[3]; 25 g/ha, RME (0.25%)",30%
same,Activity,"[3]; 50 g/ha, RME (0.25%)",70%
same,Activity,"[11]; 25 g/ha, RME (0.25%)",20%
same,Activity,"[11]; 50 g/ha, RME (0.25%)",40%
same,Activity,[11]; [23],80% and 40%
CC1=CC(=O)C(c2c(C)cc(C)cc2C)C(=O)O1 (stereo not shown) [I-4-a-1],Activity,"[4]; 25 g/ha, RME (0.25%)",0%
same,Activity,[4]; [14],20%
same,Activity,"[4]; 50 g/ha, RME (0.25%)",0%
same,Activity,[4]; [15],90%
same,Activity,"[4]; 100 g/ha, RME (0.25%)",0%
same,Activity,[4]; [22],90%
CCc1cc(Cl)cc(OC)c1-c1c(O)n2n(c1=O)CCCC2 [I-8-a-1],Activity,"[1]; 12.5 g/ha, RME (0.25%)",5%
same,Activity,[1]; [18],50%
same,Activity,"[1]; 25 g/ha, RME (0.25%)",50%
same,Activity,[1]; [14],70%
same,Activity,"[2]; 12.5 g/ha, RME (0.25%)",30%
same,Activity,[2]; [18],70%
same,Activity,"[2]; 25 g/ha, RME (0.25%)",40%
same,Activity,[2]; [14],80%
same,Activity,"[3]; 12.5 g/ha, RME (0.25%)",10%
same,Activity,[3]; [18],70%
same,Activity,"[3]; 25 g/ha, RME (0.25%)",80%
same,Activity,[3]; [14],95%
